{"source": "patent US20240182427A1", "about": "“SOLID DOSAGE FORMS OF A PLASMA KALLIKREIN INHIBITOR” (Rezolute, Inc., priority 2022, published 2024)", "key": {"[1]": {"experiment": "Aqueous solubility of anhydrous Crystalline Form I", "type": "physicochemical", "settings": "water (aqueous); anhydrous Crystalline Form I of acetate salt, at 25° C."}, "[2]": {"experiment": "Intestinal permeability / solubility classification (BCS)"}, "[3]": {"test_system": "angiotensin-II-treated rodents", "settings": "cited from earlier work"}, "[4]": {"test_system": "rat model of ischemic stroke", "settings": "cited from earlier work"}, "[5]": {"test_system": "model of hemorrhagic stroke", "settings": "cited from earlier work"}, "[6]": {"test_system": "patients with hereditary angioedema", "settings": "cited from earlier work"}, "[7]": {"test_system": "animal model of ischemic stroke", "settings": "cited from earlier work"}, "[8]": {"test_system": "mouse model of middle cerebral artery occlusion", "settings": "cited from earlier work"}}, "data": [{"molecule": "N=C(N)c1ccc(CNC(=O)c2cnn(Cc3ccccc3)c2)cc1", "note": "[Compound 1, 1-benzyl-1H-pyrazole-4-carboxylic acid 4-carbamimidoylbenzylamide]", "values": [{"measurement": "solubility", "setting": "[1]", "value": "~8300", "unit": "µg/mL"}, {"measurement": "BCS class", "setting": "[2]", "value": "BCS Class 3"}, {"measurement": "solubility", "setting": "[2]", "value": "high"}, {"measurement": "retinal vascular permeability", "setting": "[3]", "value": "reduce"}, {"measurement": "cerebrovascular edema", "setting": "[4]", "value": "reduce"}, {"measurement": "infarction volume", "setting": "[4]", "value": "reduce"}, {"measurement": "expansion of intracerebral hemorrhage", "setting": "[5]", "value": "reduce"}]}, {"molecule": "NC(N)=NCCC[C@@H](N)C(=O)N[C@@H](CCCN=C(N)N)C(=O)N1CCC[C@H]1C(=O)N1C[C@H](O)C[C@H]1C(=O)NCC(=O)N[C@@H](Cc1cccs1)C(=O)N[C@@H](CO)C(=O)N1Cc2ccccc2C[C@@H]1C(=O)N1[C@H](C(=O)N[C@@H](CCCN=C(N)N)C(=O)O)C[C@@H]2CCCC[C@@H]21", "note": "[icatibant]", "values": [{"measurement": "treating hereditary angioedema", "setting": "[6]; human, in vivo", "value": "effective"}]}, {"molecule": "Hoe-140 [reference compound]", "values": [{"measurement": "retinal vascular permeability", "setting": "[3]", "value": "reduce"}]}, {"molecule": "ecallantide", "values": [{"measurement": "brain edema", "setting": "[7]", "value": "reduced"}, {"measurement": "infarct volume", "setting": "[7]", "value": "reduced"}, {"measurement": "neurological deficits", "setting": "[7]", "value": "reduced"}, {"measurement": "edema in patients with hereditary angioedema", "setting": "[6]; patients", "value": "alleviates"}]}, {"molecule": "C1-INH: the major endogenous inhibitor of PK (protein, UniProt P05155 23-500, looked up) Plasma protease C1 inhibitor: NPNATSSSSQDPESLQDRGEGKVATTVISKMLFVEPILEVSSLPTTNSTTNSATKITANTTDEPTTQPTTEPTTQPTIQPTQPTTQLPTDSPTQPTTGSFCPGPVTLCSDLESHSTEAVLGDALVDFSLKLYHAFSAMKKVETNMAFSPFSIASLLTQVLLGAGENTKTNLESILSYPKDFTCVHQALKGFTTKGVTSVSQIFHSPDLAIRDTFVNASRTLYSSSPRVLSNNSDANLELINTWVAKNTNNKISRLLDSLPSDTRLVLLNAIYLSAKWKTTFDPKKTRMEPFHFKNSVIKVPMMNSKKYPVAHFIDQTLKAKVGQLQLSHNLSLVILVPQNLKHRLEDMEQALSPSVFKAIMEKLEMSKFQPTLLTLPRIKVTTSQDMLSIMEKLEFFDFSYDLNLCGLTEDPDLQVSAMQHQTVLELTETGVEAAAASAISVARTLLVFEVQQPFLFVLWDQQHKFPVFMGRVYDPRA", "values": [{"measurement": "infarct size", "setting": "[8]", "value": "reduced"}]}]}
